Tests used:
severe hemorrhagic shock = conditions: canine, cited from earlier work; for benefit (survival): given alone after shock had been produced
hemorrhagic shock = conditions: canine model of hemorrhagic shock; cited from earlier work
[1] = tested on: collagen-induced arthritis; test: Collagen-induced arthritis; assay type: in vivo; conditions: mice; for % Incidence / Mean Severity: collagen-induced arthritis
Method: An illustrative 5-Aryltetrazole Compound exerts protective effects in a model of collagen-induced arthritis in mice. Results are expressed as incidence and severity over time. Studies were conducted as described in Inflamm. Res. 50(11):561-569 (2001). The results illustrate that the administration of Compound JO, an illustrative 5-Aryltetrazole Compound, reduced incidence of collagen-induced arthritis in mice.

xanthine oxidase = xanthine oxidase (Homo sapiens, UniProt P47989); test: Xanthine oxidase inhibitory activity, 96 well plate, kinetic reading at 295 nm; assay type: biochemical
xanthine oxidase, sequence (P47989 whole entry, species assumed, the tested form may be a part): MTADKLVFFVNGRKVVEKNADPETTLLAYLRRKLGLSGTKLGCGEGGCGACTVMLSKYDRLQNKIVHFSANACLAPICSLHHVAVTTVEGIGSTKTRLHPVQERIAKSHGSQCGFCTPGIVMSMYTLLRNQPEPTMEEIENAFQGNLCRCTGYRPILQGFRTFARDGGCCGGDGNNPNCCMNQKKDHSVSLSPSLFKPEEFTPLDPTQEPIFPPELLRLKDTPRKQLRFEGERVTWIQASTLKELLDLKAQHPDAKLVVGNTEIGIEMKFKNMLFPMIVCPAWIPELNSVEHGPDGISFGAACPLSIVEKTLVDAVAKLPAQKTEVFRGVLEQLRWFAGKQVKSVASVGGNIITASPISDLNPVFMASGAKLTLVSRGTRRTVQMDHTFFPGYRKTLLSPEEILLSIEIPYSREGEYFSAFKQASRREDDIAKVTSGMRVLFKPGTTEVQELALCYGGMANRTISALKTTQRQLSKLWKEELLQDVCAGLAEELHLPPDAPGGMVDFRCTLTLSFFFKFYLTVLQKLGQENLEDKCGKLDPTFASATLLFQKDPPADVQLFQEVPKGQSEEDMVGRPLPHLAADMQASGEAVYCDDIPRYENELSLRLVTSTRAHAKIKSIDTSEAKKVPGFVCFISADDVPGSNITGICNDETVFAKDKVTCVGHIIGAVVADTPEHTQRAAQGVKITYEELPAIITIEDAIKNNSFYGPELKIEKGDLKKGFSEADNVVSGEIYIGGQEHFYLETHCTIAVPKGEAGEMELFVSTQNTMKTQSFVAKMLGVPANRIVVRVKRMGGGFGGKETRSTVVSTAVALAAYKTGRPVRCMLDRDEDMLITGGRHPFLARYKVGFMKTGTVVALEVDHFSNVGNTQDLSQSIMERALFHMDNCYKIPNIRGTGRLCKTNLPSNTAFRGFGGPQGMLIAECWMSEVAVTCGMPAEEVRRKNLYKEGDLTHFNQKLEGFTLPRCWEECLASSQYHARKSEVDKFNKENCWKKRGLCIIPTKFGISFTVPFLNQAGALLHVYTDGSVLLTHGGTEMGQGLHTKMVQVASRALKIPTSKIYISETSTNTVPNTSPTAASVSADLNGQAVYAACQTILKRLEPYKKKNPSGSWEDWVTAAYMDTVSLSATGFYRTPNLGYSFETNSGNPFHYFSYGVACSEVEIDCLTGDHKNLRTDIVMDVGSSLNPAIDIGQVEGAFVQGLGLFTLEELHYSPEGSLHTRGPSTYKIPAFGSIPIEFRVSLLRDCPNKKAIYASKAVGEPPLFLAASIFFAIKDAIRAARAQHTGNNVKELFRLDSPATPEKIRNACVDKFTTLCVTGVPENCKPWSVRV

gut ischemia reperfusion = test: Gut ischemia reperfusion-induced hyperpermeability and mortality; assay type: in vivo; conditions: mice; for Survival % (6 h): 6 hours of reperfusion, control 60; for Survival % (2 days): 2 days of reperfusion, control 0; for Gut Permeability: intraperitoneal, control 100%
Method: Illustrative 5-Aryltetrazole Compounds exert protective effects in various models of organ ischemia and reperfusion. For example, intraperitoneal administration of illustrative 5-Aryltetrazole Compounds retards the progression of gut ischemia reperfusion-induced hyperpermeability and mortality in mice. Results are expressed as % decrease in gut hyperpermeability and as mortality as observed after 6 hours and 2 days of reperfusion. Studies were conducted as described in Shock, 14(2): 134-141 (2000). There was a notable dose-dependent effect on gut hyperpermeability and there was an improvement in survival rate, as tested at the highest dose of both levels.

[2] = tested on: thioacetamide model of hepatic failure; test: Toxic liver injury model (thioacetamide model of hepatic failure), serum AST; assay type: in vivo; conditions: mice; for Percent Inhibition of Serum AST Levels: thioacetamide 400 mg/kg i.p., mean ±SEM (n=7-10); for serum AST levels (result in words): summary of the table
Method: Illustrative 5-Aryltetrazole Compounds exert hepatoprotective effects in a thioacetamide model of hepatic failure. […] […] Results are expressed as percent inhibtion, mean ±SEM (n=7-10). Studies were conducted as described in Biochim. Biophys. Acta. 1536(1):21-30 (2001).

SMILES	benefit (survival) (severe hemorrhagic shock)	PERCENT XANTHINE OXIDASE INHIBITION (xanthine oxidase; compound concentration 0.03 μM) [%]	PERCENT XANTHINE OXIDASE INHIBITION (xanthine oxidase; compound concentration 0.1 μM) [%]	PERCENT XANTHINE OXIDASE INHIBITION (xanthine oxidase; compound concentration 1 μM) [%]	Survival % (6 h) (gut ischemia reperfusion; 30 mg/kg) [%]	Survival % (2 days) (gut ischemia reperfusion; 30 mg/kg) [%]	Gut Permeability (gut ischemia reperfusion; 30 mg/kg) [%]	Percent Inhibition of Serum AST Levels ([2]; single oral dose 3 mg/kg) [%]	Percent Inhibition of Serum AST Levels ([2]; single oral dose 10 mg/kg) [%]	serum AST levels (result in words) [2]	further results
Oc1ncnc2[nH]ncc12 [allopurinol]	no benefit	–	–	–	–	–	–	–	–	–	increase in survival (severe hemorrhagic shock; pre-treatment): 6 fold; survival (result in words) (hemorrhagic shock): significantly improved survival
CC(C)(C)c1ccc(NC(=O)c2ccc(-c3nnn[nH]3)cc2)cc1 [Compound JO]	–	18	36	83	87	13	39	24 ± 9	36 ± 12	–	incidence of collagen-induced arthritis (result in words) ([1]; after 33 days, versus untreated mice): significant decrease; % Incidence ([1]; day 25): 20%; Mean Severity ([1]; day 25): 0; % Incidence ([1]; day 27): 35%; Mean Severity ([1]; day 27): 0; % Incidence ([1]; day 29): 45%; Mean Severity ([1]; day 29): 3; % Incidence ([1]; day 31): 75%; Mean Severity ([1]; day 31): 8; % Incidence ([1]; day 33): 85%; Mean Severity ([1]; day 33): 8; collagen-induced arthritis (result in words) ([1]; summary): inhibits collagen-induced arthritis
O=c1[nH]cnc2nc[nH]c12 [hypoxanthine]	no benefit	–	–	–	–	–	–	–	–	–	–
CC(C)Cc1ccc(NC(=O)c2ccc(-c3nnn[nH]3)cc2)cc1 [Compound IG]	–	33	59	93	87	20	47	25 ± 4	46 ± 8	inhibit serum AST levels	Gut Permeability (gut ischemia reperfusion; 3 mg/kg): 73%; Gut Permeability (gut ischemia reperfusion; 10 mg/kg): 69%
O=C(Nc1ccccc1)c1ccc(-c2nn[nH]n2)cc1 [Compound IC]	–	60	81	100	–	–	–	3 ± 8	20 ± 5	inhibit serum AST levels	–
CC(C)c1ccc(NC(=O)c2ccc(-c3nnn[nH]3)cc2)cc1 [Compound IP]	–	28	52	92	–	–	–	23 ± 8	41 ± 8	inhibit serum AST levels	–

Reference: patent US7087631B2, “Aryltetrazole compounds, and compositions thereof” (Inotek Pharmaceuticals Corporation, priority 2002, dated 2006)
